Results on 1 compound are retold here after patent US7579448B2, “Purification of microbial cell fermentation homogenates” (Genentech, Inc., priority 2003, dated 2009).

The structures appear in SMILES notation.

Data set [1] can be described thus: Ethacridine lactate solubility at increasing NaCl concentrations. Format: physicochemical. The method, then: The samples were incubated for three hours at room temperature before the concentration of soluble ethacridine lactate was determined. The open keys symbolize the 1.2% ethacridine lactate solution and the closed keys the 0.6% solution. The solid line is the 0.6% ethacridine lactate solution at pH 6.0, the broken line is the 1.2% ethacridine lactate solution at pH 6, the dotted line is the 0.6% ethacridine lactate solution at pH 9, and the broken line with dots is the 1.2% ethacridine lactate solution at pH 9.
Two ethacridine lactate solutions, i.e., 0.6 and 1.2%, were studied. Each solution was divided into two aliquots and pH adjusted to 6.0 and 9.0, respectively. To obtain a slight buffer capacity in the system, the ethacridine lactate was dissolved in 10 mM Tris-HCl buffer. Each ethacridine lactate solution was exposed to increasing amounts of NaCl, i.e., 0, 50, 100, 150, 200, 300, and 600 mM. The samples were incubated for 3 hours, then centrifuged for 20 minutes at 12000 g in a microfuge (SORVALL MC12V™, DuPont, Wilmington, Del., USA). The supernatants were assayed for ethacridine lactate by measuring the absorption at 270 nm. The spectrophotometer used was a HP8453 UV-VIS™ from Hewlett Packard (Wilmington, Del.), now Aligent Technologies (Palo Alto, Calif.) and known as the AGILENT 8453 UV-VIS™ spectrophotometer. A standard curve was derived from a solution with known ethacridine lactate concentration.

Data set [2] is described as follows: Conductivity study: NaCl added to anti-CD18 homogenate with 0.6% ethacridine lactate. To be noted: 100 mM NaCl, anti-CD18 homogenate diluted 4-fold. Format: physicochemical. How it is done: Various concentrations of NaCl were added to anti-CD18 homogenate to evaluate the effect of conductivity on protein precipitation. The NaCl concentrations studied were 0, 50, 100, 150, 200, and 400 mM. A reference series without ethacridine lactate was also performed to determine if any protein was precipitated due to the high salt concentration. The pH in this salt spike study was 8.5 and the anti-CD18 homogenate was diluted 4-fold. The ethacridine lactate concentration in the samples was 0.6% and 0% for the reference experiments.

Take `CC(O)C(=O)O.CCOc1ccc2nc3cc(N)ccc3c(N)c2c1` [ethacridine lactate, 6,9-diamino-2-ethoxyacridine lactate]: the “solubility of ethacridine lactate” value in data set [1] (pH 6, 0.6 and 1.2% solutions, 50 mM NaCl, 3 hours at room temperature) is listed as “soluble”; in data set [1] (pH 6, 0.6 and 1.2% solutions, 100 mM NaCl, 3 hours at room temperature), “nearly fully precipitated”; in data set [1] (pH 9, 0.6% solution compared with 1.2% solution, increasing NaCl), “precipitated at lower salt concentration than the more concentrated ethacridine lactate solution”. In data set [2], the “precipitation of ethacridine lactate in the extraction system” value is reported as “precipitation of ethacridine lactate was observed”.
